In US20090311217A1, “3-SUBSTITUTED-1H-INDOLE COMPOUNDS, THEIR USE AS MTOR KINASE AND PI3 KINASE INHIBITORS, AND THEIR SYNTHESES” (priority 2008, published 2009):
pIC50: −log10 of the molar value. One block for each compound: values may come before it.

How the values were obtained:
Type in all cases: biochemical
PI3K-alpha = PI3K-alpha (Homo sapiens, UniProt P42336); experiment: PI3K-alpha fluorescence polarization assay; conditions: read-out: PI3Kα Avg. IC50
human TOR = target: T1, human TOR (Homo sapiens, UniProt P42345); experiment: mTOR enzyme assay (DELFIA, His6-S6K substrate); conditions: read-out: mTOR Kinase Avg. IC50
T1 construct: FLAG

PI3K-gamma = PI3K-gamma (Homo sapiens, UniProt P48736); experiment: PI3K-gamma fluorescence polarization assay; conditions: PI3Kγ Avg. IC50
Chain of PI3K-gamma (P48736 whole entry, species assumed, the tested form may be a part): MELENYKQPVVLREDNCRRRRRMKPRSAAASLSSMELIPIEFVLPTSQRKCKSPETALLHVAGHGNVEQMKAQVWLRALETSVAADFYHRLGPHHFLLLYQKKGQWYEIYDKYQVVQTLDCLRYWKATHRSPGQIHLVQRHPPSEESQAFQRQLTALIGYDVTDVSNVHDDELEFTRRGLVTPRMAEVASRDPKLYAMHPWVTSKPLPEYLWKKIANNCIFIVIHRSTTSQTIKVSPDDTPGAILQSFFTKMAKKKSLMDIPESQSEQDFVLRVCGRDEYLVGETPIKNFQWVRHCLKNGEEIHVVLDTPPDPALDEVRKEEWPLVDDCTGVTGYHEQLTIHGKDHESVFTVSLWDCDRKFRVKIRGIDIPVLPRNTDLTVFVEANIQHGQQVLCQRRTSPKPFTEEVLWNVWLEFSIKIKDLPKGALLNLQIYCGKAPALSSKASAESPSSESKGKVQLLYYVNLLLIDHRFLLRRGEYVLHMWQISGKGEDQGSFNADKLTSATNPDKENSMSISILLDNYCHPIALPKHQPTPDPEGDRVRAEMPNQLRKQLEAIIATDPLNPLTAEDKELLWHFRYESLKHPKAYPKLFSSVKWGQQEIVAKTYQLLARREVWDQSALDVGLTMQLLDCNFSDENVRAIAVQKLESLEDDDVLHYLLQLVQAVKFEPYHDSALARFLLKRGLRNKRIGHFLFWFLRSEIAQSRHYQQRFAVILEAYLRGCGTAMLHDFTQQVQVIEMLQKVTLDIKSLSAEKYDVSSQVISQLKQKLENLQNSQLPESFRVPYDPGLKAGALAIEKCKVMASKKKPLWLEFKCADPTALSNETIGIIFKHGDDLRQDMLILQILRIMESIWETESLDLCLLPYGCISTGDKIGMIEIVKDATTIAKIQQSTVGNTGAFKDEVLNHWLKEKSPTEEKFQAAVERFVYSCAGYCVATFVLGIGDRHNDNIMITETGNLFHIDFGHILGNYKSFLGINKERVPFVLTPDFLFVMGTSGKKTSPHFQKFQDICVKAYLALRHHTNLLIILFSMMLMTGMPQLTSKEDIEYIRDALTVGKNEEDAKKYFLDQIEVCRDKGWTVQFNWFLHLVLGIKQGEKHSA
In short: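 Reactions used 5 ng enzyme with 2.5 μM diC8-PI(4,5)P2 and 25 μM ATP in 5 mM HEPES pH 7, 2.5 mM MgCl2, run 1 h at 25° C. After an EDTA quench (10 mM), 100 nM GST-GRP1 PH domain and 5 nM BODIPY-TMR-IP4 were added and fluorescence polarization was read.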

Chain of PI3K-alpha (P42336 whole entry, species assumed): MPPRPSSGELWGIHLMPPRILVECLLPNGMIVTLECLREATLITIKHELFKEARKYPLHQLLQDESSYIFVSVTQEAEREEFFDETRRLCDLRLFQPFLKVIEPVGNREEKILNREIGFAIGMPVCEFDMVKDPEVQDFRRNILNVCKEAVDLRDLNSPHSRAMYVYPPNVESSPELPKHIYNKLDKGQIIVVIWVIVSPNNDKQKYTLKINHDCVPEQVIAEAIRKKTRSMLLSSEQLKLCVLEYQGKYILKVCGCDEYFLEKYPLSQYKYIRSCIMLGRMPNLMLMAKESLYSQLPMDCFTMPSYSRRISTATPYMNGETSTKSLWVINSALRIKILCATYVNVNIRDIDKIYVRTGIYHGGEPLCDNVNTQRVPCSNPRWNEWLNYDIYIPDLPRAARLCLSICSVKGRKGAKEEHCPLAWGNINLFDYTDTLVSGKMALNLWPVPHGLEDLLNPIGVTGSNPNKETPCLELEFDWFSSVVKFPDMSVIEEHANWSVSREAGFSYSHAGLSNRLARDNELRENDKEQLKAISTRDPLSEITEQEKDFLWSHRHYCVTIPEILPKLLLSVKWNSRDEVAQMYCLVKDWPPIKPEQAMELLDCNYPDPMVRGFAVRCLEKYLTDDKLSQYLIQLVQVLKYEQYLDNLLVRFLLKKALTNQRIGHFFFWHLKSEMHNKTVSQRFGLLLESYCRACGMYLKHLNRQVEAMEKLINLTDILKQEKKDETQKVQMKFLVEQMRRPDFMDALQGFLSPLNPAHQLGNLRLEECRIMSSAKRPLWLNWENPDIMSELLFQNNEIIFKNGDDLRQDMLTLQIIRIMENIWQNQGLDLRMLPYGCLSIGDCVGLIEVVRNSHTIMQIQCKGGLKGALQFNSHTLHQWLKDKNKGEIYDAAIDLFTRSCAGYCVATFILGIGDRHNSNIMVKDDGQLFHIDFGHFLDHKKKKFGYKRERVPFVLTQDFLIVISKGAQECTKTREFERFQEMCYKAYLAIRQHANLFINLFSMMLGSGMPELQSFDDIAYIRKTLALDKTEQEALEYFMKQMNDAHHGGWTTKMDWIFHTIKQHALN
Chain of PI3K-alpha (P27986 whole entry partner, species assumed): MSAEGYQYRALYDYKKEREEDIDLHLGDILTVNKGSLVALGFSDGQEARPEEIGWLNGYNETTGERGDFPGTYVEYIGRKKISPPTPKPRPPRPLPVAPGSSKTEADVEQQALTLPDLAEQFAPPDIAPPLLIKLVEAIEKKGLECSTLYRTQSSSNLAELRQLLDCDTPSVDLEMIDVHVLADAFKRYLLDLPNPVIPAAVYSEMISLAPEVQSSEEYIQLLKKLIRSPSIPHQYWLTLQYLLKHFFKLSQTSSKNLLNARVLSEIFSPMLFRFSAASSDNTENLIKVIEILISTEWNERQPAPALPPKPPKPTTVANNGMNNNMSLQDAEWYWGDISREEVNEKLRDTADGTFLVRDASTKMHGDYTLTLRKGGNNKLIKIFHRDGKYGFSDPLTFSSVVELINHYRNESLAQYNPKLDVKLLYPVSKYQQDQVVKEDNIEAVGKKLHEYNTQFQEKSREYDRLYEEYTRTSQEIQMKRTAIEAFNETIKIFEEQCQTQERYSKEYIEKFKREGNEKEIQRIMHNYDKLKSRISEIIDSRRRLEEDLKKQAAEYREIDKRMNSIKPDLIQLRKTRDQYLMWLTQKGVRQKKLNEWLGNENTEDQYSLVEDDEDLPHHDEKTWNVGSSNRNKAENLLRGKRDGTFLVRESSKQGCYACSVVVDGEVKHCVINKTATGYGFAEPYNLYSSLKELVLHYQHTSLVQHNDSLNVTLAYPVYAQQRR

Compound: Cn1c(-c2ccccn2)c(C=C2Oc3cc(O)cc(O)c3C2=O)c2ccccc21 [Example 223, 4,6-dihydroxy-2-[(1-methyl-2-pyridin-2-yl-1H-indol-3-yl)methylene]-1-benzofuran-3(2H)-one]
pIC50 (PI3K-alpha): 5.44 | pIC50 (human TOR): 7.22 | pIC50 (PI3K-gamma): < 5.00

Compound: Cn1cc(/C=C2\Oc3cc(O)cc(O)c3C2=O)c2c(-c3ccc(C(=O)NCc4ccco4)cc3)cccc21 [Example 399, 4-{3-[(Z)-(4,6-dihydroxy-3-oxo-1-benzofuran-2(3H)-ylidene)methyl]-1-methyl-1H-indol-4-yl}-N-(2-furylmethyl)benzamide]
pIC50 (PI3K-alpha): 6.09 | pIC50 (human TOR): 7.16 | pIC50 (PI3K-gamma): < 5.00

Compound: COc1ccc2c(c1)c(/C=C1\Oc3cc(CO)ccc3C1=O)cn2CCCN(C)C [Example 424, (2Z)-2-({1-[3-(dimethylamino)propyl]-5-methoxy-1H-indol-3-yl}methylene)-6-(hydroxymethyl)-1-benzofuran-3(2H)-one]
pIC50 (PI3K-alpha): 5.40 | pIC50 (human TOR): < 4.70 | pIC50 (PI3K-gamma): < 5.00

Compound: CCn1cc(/C=C2\Oc3ccc(NC(=O)Nc4ccc(C(=O)N5CCN(C)CC5)cc4)cc3C2=O)c2cc(OC)ccc21 [Compound 642, 1-{(2Z)-2-[(1-ethyl-5-methoxy-1H-indol-3-yl)methylene]-3-oxo-2,3-dihydro-1-benzofuran-5-yl}-3-{4-[(4-methylpiperazin-1-yl)carbonyl]phenyl}urea]
pIC50 (PI3K-alpha): 9.02 | pIC50 (human TOR): 5.59 | pIC50 (PI3K-gamma): 8.10

Compound: COc1ccc2c(c1)c(/C=C1\Oc3ccc(NC(=O)Nc4ccc(C(=O)N5CCN(C)CC5)cc4)cc3C1=O)c(C)n2C [Compound 658, 1-{(2Z)-2-[(5-methoxy-1,2-dimethyl-1H-indol-3-yl)methylidene]-3-oxo-2,3-dihydro-1-benzofuran-5-yl}-3-{4-[(4-methylpiperazin-1-yl)carbonyl]phenyl}urea]
pIC50 (PI3K-alpha): 9.52 | pIC50 (human TOR): 5.61 | pIC50 (PI3K-gamma): 8.67

Compound: CNCCNC(=O)c1ccc(NC(=O)Nc2ccc3c(c2)C(=O)/C(=C/c2c(C4CCCCC4)[nH]c4ccc(OC)cc24)O3)cc1 [Compound 660, 4-[({(2Z)-2-[(2-cyclohexyl-5-methoxy-1H-indol-3-yl)methylene]-3-oxo-2,3-dihydro-1-benzofuran-5-yl}carbamoyl)amino]-N-[2-(methylamino)ethyl]benzamide]
pIC50 (PI3K-alpha): 9.52 | pIC50 (human TOR): 8.40 | pIC50 (PI3K-gamma): 8.53

Compound: N#CCCCCCn1c(-c2ccccc2)c(C=C2Oc3cc(O)cc(O)c3C2=O)c2ccccc21 [Example 225, 6-{3-[(4,6-dihydroxy-3-oxo-1-benzofuran-2(3H)-ylidene)methyl]-2-phenyl-1H-indol-1-yl}hexanenitrile]
pIC50 (PI3K-alpha): 6.01 | pIC50 (human TOR): 6.15 | pIC50 (PI3K-gamma): < 5.00

Compound: COc1ccc2[nH]c(-c3c(C)nn(C)c3C)c(/C=C3\Oc4ccc(NC(=O)Nc5ccc(C(=O)N6CCS(=O)(=O)CC6)cc5)cc4C3=O)c2c1 [Compound 720, 1-{4-[(1,1-dioxidothiomorpholin-4-yl)carbonyl]phenyl}-3-[(2Z)-2-{[5-methoxy-2-(1,3,5-trimethyl-1H-pyrazol-4-yl)-1H-indol-3-yl]methylidene}-3-oxo-2,3-dihydro-1-benzofuran-5-yl]urea]
pIC50 (PI3K-alpha): 9.40 | pIC50 (human TOR): 8.70 | pIC50 (PI3K-gamma): 8.76

Compound: N#Cc1ccc2[nH]cc(C=C3Oc4cc(O)cc(O)c4C3=O)c2c1 [Example 182, 3-[(4,6-dihydroxy-3-oxo-1-benzofuran-2(3H)-ylidene)methyl]-1H-indole-5-carbonitrile]
pIC50 (PI3K-alpha): 5.95 | pIC50 (human TOR): 4.92 | pIC50 (PI3K-gamma): < 5.00

Compound: COc1ccc2[nH]c(-c3c(C)nn(C)c3C)c(/C=C3\Oc4ccc(NC(=O)Nc5ccc(C(=O)N6CCOCC6)cc5)cc4C3=O)c2c1 [Compound 690, 1-[(2Z)-2-{[5-methoxy-2-(1,3,5-trimethyl-1H-pyrazol-4-yl)-1H-indol-3-yl]methylidene}-3-oxo-2,3-dihydro-1-benzofuran-5-yl]-3-[4-(morpholin-4-ylcarbonyl)phenyl]urea]
pIC50 (PI3K-alpha): 9.70 | pIC50 (human TOR): 8.40 | pIC50 (PI3K-gamma): 8.56

Compound: COc1ccc2c(c1)c(/C=C1\Oc3ccc(NC(=O)Nc4ccc(OCCCCN(C)C)cc4)cc3C1=O)c(C)n2CCN1CCN(C)CC1 [Compound 674, 1-{4-[4-(dimethylamino)butoxy]phenyl}-3-[(2Z)-2-({5-methoxy-2-methyl-1-[2-(4-methylpiperazin-1-yl)ethyl]-1H-indol-3-yl}methylidene)-3-oxo-2,3-dihydro-1-benzofuran-5-yl]urea]
pIC50 (PI3K-alpha): 8.00 | pIC50 (human TOR): 6.46 | pIC50 (PI3K-gamma): 6.16

Compound: COc1cc(F)c2[nH]c(-c3c(C)nn(C)c3C)c(/C=C3\Oc4ccc(NC(=O)Nc5ccc(C(=O)N6CCC(N(C)C)CC6)cc5)cc4C3=O)c2c1 [Compound 729, 1-(4-{[4-(dimethylamino)piperidin-1-yl]carbonyl}phenyl)-3-[(2Z)-2-{[7-fluoro-5-methoxy-2-(1,3,5-trimethyl-1H-pyrazol-4-yl)-1H-indol-3-yl]methylidene}-3-oxo-2,3-dihydro-1-benzofuran-5-yl]urea]
pIC50 (PI3K-alpha): 9.46 | pIC50 (human TOR): 9.00 | pIC50 (PI3K-gamma): 8.54

Compound: COc1ccc2[nH]c(-c3c(C)nn(C)c3C)c(/C=C3\Oc4ccc(NC(=O)Nc5ccc(C(=O)N6CCN(C)CC6)cc5)cc4C3=O)c2c1 [Compound 689, 1-[(2Z)-2-{[5-methoxy-2-(1,3,5-trimethyl-1H-pyrazol-4-yl)-1H-indol-3-yl]methylidene}-3-oxo-2,3-dihydro-1-benzofuran-5-yl]-3-{4-[(4-methylpiperazin-1-yl)carbonyl]phenyl}urea]
pIC50 (PI3K-alpha): 9.70 | pIC50 (human TOR): 8.40 | pIC50 (PI3K-gamma): 8.60

Compound: COc1ccc2[nH]c(-c3c(C)nn(C)c3C)c(/C=C3\Oc4ccc(NC(=O)Nc5cccc(C(=O)N(C)CCN(C)C)c5)cc4C3=O)c2c1 [Compound 707, N-[2-(dimethylamino)ethyl]-3-({[(2Z)-2-{[5-methoxy-2-(1,3,5-trimethyl-1H-pyrazol-4-yl)-1H-indol-3-yl]methylidene}-3-oxo-2,3-dihydro-1-benzofuran-5-yl]carbamoyl}amino)-N-methylbenzamide]
pIC50 (PI3K-alpha): 8.10 | pIC50 (human TOR): 7.07 | pIC50 (PI3K-gamma): 6.91

Compound: CCN1CCN(C(=O)c2ccc(NC(=O)Nc3ccc4c(c3)C(=O)/C(=C/c3c(-c5c(C)nn(C)c5C)[nH]c5ccc(OC)cc35)O4)cc2)CC1 [Compound 699, 1-{4-[(4-ethylpiperazin-1-yl)carbonyl]phenyl}-3-[(2Z)-2-{[5-methoxy-2-(1,3,5-trimethyl-1H-pyrazol-4-yl)-1H-indol-3-yl]methylidene}-3-oxo-2,3-dihydro-1-benzofuran-5-yl]urea]
pIC50 (PI3K-alpha): 9.40 | pIC50 (human TOR): 8.30 | pIC50 (PI3K-gamma): 8.52

Compound: COc1ccc2[nH]c(C3CCCCC3)c(/C=C3\Oc4ccc(NC(=O)Nc5ccc(C(=O)N6CCN(C)CC6)cc5)cc4C3=O)c2c1 [Compound 644, 1-{(2Z)-2-[(2-cyclohexyl-5-methoxy-1H-indol-3-yl)methylene]-3-oxo-2,3-dihydro-1-benzofuran-5-yl}-3-{4-[(4-methylpiperazin-1-yl)carbonyl]phenyl}urea]
pIC50 (PI3K-alpha): 9.52 | pIC50 (human TOR): 7.48 | pIC50 (PI3K-gamma): 8.60

Continued, values first:

pIC50 (PI3K-alpha): 5.98 | pIC50 (human TOR): 7.02 | pIC50 (PI3K-gamma): 5.15
Compound: O=C1C(=Cc2c(-c3cccnc3)[nH]c3ccccc23)Oc2cc(O)cc(O)c21 [Example 202, 4,6-dihydroxy-2-[(2-pyridin-3-yl-1H-indol-3-yl)methylene]-1-benzofuran-3(2H)-one]

pIC50 (PI3K-alpha): 7.38 | pIC50 (human TOR): 6.94 | pIC50 (PI3K-gamma): 6.45
Compound: COc1ccc2[nH]c(-c3c(C)nn(C)c3C)c(/C=C3\Oc4ccc(NC(=O)Nc5cccc(C(=O)N(C)CCCN(C)C)c5)cc4C3=O)c2c1 [Compound 708, N-[3-(dimethylamino)propyl]-3-({[(2Z)-2-{[5-methoxy-2-(1,3,5-trimethyl-1H-pyrazol-4-yl)-1H-indol-3-yl]methylidene}-3-oxo-2,3-dihydro-1-benzofuran-5-yl]carbamoyl}amino)-N-methylbenzamide]

pIC50 (PI3K-alpha): 6.37 | pIC50 (human TOR): 7.05 | pIC50 (PI3K-gamma): 5.49
Compound: Cn1cc(/C=C2\Oc3cc(O)cc(O)c3C2=O)c2c(-c3ccc(N)nc3)cccc21 [Example 380, (2Z)-2-{[4-(6-Aminopyridin-3-yl)-1-methyl-1H-indol-3-yl]methylene}-4,6-dihydroxy-1-benzofuran-3(2H)-one]

pIC50 (PI3K-alpha): 7.64 | pIC50 (human TOR): 6.62 | pIC50 (PI3K-gamma): 6.61
Compound: CNC(=O)Nc1ccc2c(c1)C(=O)/C(=C/c1c(-c3c(C)nn(C)c3C)[nH]c3c(OC)c(F)c(OC)cc13)O2 [Compound 712, 1-[(2Z)-2-{[6-fluoro-5,7-dimethoxy-2-(1,3,5-trimethyl-1H-pyrazol-4-yl)-1H-indol-3-yl]methylidene}-3-oxo-2,3-dihydro-1-benzofuran-5-yl]-3-methylurea]

pIC50 (PI3K-alpha): 5.78 | pIC50 (human TOR): 6.17 | pIC50 (PI3K-gamma): < 5.00
Compound: N#CCCCn1c(-c2cccnc2)c(C=C2Oc3cc(O)cc(O)c3C2=O)c2ccccc21 [Example 226, 4-{3-[(4,6-dihydroxy-3-oxo-1-benzofuran-2(3H)-ylidene)methyl]-2-pyridin-3-yl-1H-indol-1-yl}butanenitrile]

pIC50 (PI3K-alpha): 8.69 | pIC50 (human TOR): 7.74 | pIC50 (PI3K-gamma): 7.20
Compound: CNC(=O)Nc1ccc2c(c1)C(=O)/C(=C/c1c(-c3c(C)nn(C)c3C)n(CCNCCN(C)C)c3ccc(OC)cc13)O2 [Compound 664, 1-[(2Z)-2-{[1-(2-{[2-(dimethylamino)ethyl]amino}ethyl)-5-methoxy-2-(1,3,5-trimethyl-1H-pyrazol-4-yl)-1H-indol-3-yl]methylidene}-3-oxo-2,3-dihydro-1-benzofuran-5-yl]-3-methylurea]

pIC50 (PI3K-alpha): 7.29 | pIC50 (human TOR): 5.70 | pIC50 (PI3K-gamma): 6.01
Compound: COc1ccc2c(c1)c(/C=C1\Oc3cc(O)cc(O)c3C1=O)c(-c1cncnc1)n2CCN1CCN(C)CC1 [Example 463, (2Z)-4,6-Dihydroxy-2-({5-methoxy-1-[2-(4-methylpiperazin-1-yl)ethyl]-2-pyrimidin-5-yl-1H-indol-3-yl}methylene)-1-benzofuran-3(2H)-one]
